In one test the target is T1, BIR3 domain of XIAP (Homo sapiens, UniProt P98170).
T1 construct: BIR3 domain, corresponding to amino acids 241-356 of XIAP
The test can be described thus: TR-FRET assay for BIR3 (inhibition of binding of XIAP BIR3 domain to SMAC-derived Peptide A). As to conditions: 6x Histidine-tagged BIR3 domain (amino acids 241-356 of XIAP) 10 nM, Peptide A 20 nM. The method, then: (§1) TR-FRET Assay for BIR2 and BIR3
(§2) The ability of a test compound to inhibit the binding of BIR2 and/or BIR3 domains of the XIAP protein to Peptide A (a SMAC-derived peptide described below) evidences that the test compound acts as a SMAC-mimetic resulting in reactivation of a cell's apoptotic pathway.
(§3) The peptides were labeled with the fluorescent tags FITC or TAMRA and Kd values were determined by fluorescence polarization assay. […] The peptide sequence was derivatized with biotin to provide […]-(ε-biotin)-OH 1:2 TFA as the substrate for the TR-FRET assay.
The sequence of the BIR3 domain used for the TR-FRET assay is […]
Ten nanomolar of 6× Histidine-tagged BIR2 domain, corresponding to amino acids 124-240 of XIAP, or BIR3 domain, corresponding to amino acids 241-356 of XIAP, was mixed with 20 nM of the peptide […]-(z-biotin)-OH 1:2 TFA, in the presence of 50 mM Tris-Cl, pH 7.5, 100 mM NaCl, 1 mM dithiothreitol (DTT) and 0.1 mg/mL bovine serum albumin (BSA). Following a […] incubation at 37° C., Europium-Streptavidin and Allophycocyanin conjugated anti-Histidine antibody were added to a final concentration of 1.5 nM and 15 nM, respectively. Time-resolved fluorescence resonance energy transfer (TR-FRET) signals were measured 1 hour later at room temperature. Test compound potency was assessed at 10 serially diluted concentrations. Percentage of inhibition at each concentration was determined to generate an IC50 value for each test compound.

Another test concerns the target T2, BIR2 domain of XIAP (Homo sapiens, UniProt P98170, C202A/C213G).
T2 construct: 6× Histidine-tagged BIR2 domain, corresponding to amino acids 124-240 of XIAP
Nature of the test: TR-FRET assay for BIR2 (inhibition of binding of XIAP BIR2 domain to SMAC-derived Peptide A). As to conditions: 6x Histidine-tagged BIR2 domain (amino acids 124-240 of XIAP) 10 nM, Peptide A 20 nM. On the procedure:
as §1, §2, §3
The XIAP protein sequence was obtained from the SWISS-PROT protein sequence database and the BIR2 and BIR3 domains were derived from that. The sequence of the BIR2 domain used for the TR-FRET assay is […].
Time-resolved fluorescence resonance energy transfer (TR-FRET) signals were measured 1 hour later at room temperature. Test compound potency was assessed at 10 serially diluted concentrations. Percentage of inhibition at each concentration was determined to generate an IC50 value for each test compound.
(In general: TR-FRET usually uses a lanthanide donor and a delayed reading to cut background.)

Usually IC50 stands for the concentration that inhibits the measured activity by half. Higher therefore signals weaker potency.

T1 sequence (P98170 with tags, fused parts or gaps): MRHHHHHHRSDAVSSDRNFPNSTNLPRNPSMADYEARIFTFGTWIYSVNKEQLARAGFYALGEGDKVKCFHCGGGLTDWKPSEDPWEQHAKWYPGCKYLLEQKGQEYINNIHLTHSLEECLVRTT
T2 sequence (P98170 with tags, fused parts or gaps C202A/C213G): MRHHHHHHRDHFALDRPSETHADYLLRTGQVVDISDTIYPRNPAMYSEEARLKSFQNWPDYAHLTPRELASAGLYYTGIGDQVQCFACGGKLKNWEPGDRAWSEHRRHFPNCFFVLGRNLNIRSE

Consider `CCNC(=O)C1Cc2cccnc2N1C(=O)[C@@H](NC(=O)[C@H](C)NC)C(C)C` (mixture of isomers) [Example 1, (R,S)-1-[(S)-3-Methyl-2-((S)-2-methylamino-propionylamino)-butyryl]-2,3-dihydro-1H-pyrrolo[2,3-b]pyridine-2-carboxylic acid ethylamide], for which the IC50 on BIR3 domain of XIAP was > 54.8 µM; at BIR2 domain of XIAP, 1.04 µM.
For `CN[C@@H](C)C(=O)N[C@H](C(=O)N1CC(C)(C)c2cccnc21)C(C)C` [Example 2, (S)—N—[(S)-1-(3,3-Dimethyl-2,3-dihydro-pyrrolo[2,3-b]pyridine-1-carbonyl)-2-methyl-propyl]-2-methylamino-propionamide] the same measures were > 54.8 µM and 3.88 µM.
The like results for `CC[C@H](NC)C(=O)N[C@H](C(=O)N1CC(C)(C)c2cccnc21)C(C)C` [Example 3, (S)—N—[(S)-1-(3,3-Dimethyl-2,3-dihydro-pyrrolo[2,3-b]pyridine-1-carbonyl)-2-methyl-propyl]-2-methylamino-butyramide] were, in that order, > 54.8 µM and 4.03 µM.
For `CCNC(=O)C1Cc2cccnc2N1C(=O)[C@@H](NC(=O)[C@H](C)NC)C1CCCCC1` (stereo partly drawn) [Example 4, (R,S)-1-[(S)-2-Cyclohexyl-2-((S)-2-methylamino-propionylamino)-acetyl]-2,3-dihydro-1H-pyrrolo[2,3-b]pyridine-2-carboxylic acid ethylamide] the same measures were > 54.8 µM and 2.12 µM.
For the compound `CCNC(=O)C1Cc2cccnc2N1C(=O)[C@@H](NC(=O)[C@H](CC)NC)C1CCCCC1` (stereo partly drawn) [Example 5, (R,S)-1-[(S)-2-Cyclohexyl-2-((S)-2-methylamino-butyrylamino)-acetyl]-2,3-dihydro-1H-pyrrolo[2,3-b]pyridine-2-carboxylic acid ethylamide], the IC50 at BIR3 domain of XIAP was > 54.8 µM; at BIR2 domain of XIAP, 1.86 µM.
The like results for `CCNC(=O)C1Cc2cccnc2N1C(=O)[C@@H](NC(=O)[C@H](C)NC)[C@@H](C)CC` (stereo partly drawn) [Example 6, (R,S)-1-[(2S,3S)-3-Methyl-2-((S)-2-methylamino-propionylamino)-pentanoyl]-2,3-dihydro-1H-pyrrolo[2,3-b]pyridine-2-carboxylic acid ethylamide] were, in that order, > 54.8 µM and 1.28 µM.
Turning to `CCNC(=O)C1Cc2cccnc2N1C(=O)[C@@H](NC(=O)[C@H](CC)NC)[C@@H](C)CC` (stereo partly drawn) [Example 7, (R,S)-1-[(2S,3S)-3-Methyl-2-((S)-2-methylamino-butyrylamino)-pentanoyl]-2,3-dihydro-1H-pyrrolo[2,3-b]pyridine-2-carboxylic acid ethylamide], the IC50 was > 54.8 µM at BIR3 domain of XIAP and 1.03 µM at BIR2 domain of XIAP.
For `CN[C@@H](C)C(=O)N[C@H](C(=O)N1c2ncccc2CC1C(N)=O)C(C)C` (stereo partly drawn) [Example 8, (R,S)-1-[(S)-3-Methyl-2-((S)-2-methylamino-propionylamino)-butyryl]-2,3-dihydro-1H-pyrrolo[2,3-b]pyridine-2-carboxylic acid amide] the same measures were > 54.8 µM and 0.501 µM.
Regarding `CN[C@@H](C)C(=O)N[C@H](C(=O)N1c2ncccc2C[C@@H]1C(=O)Nc1ccccc1OC)C(C)C` [Example 9, (R)-1-[(S)-3-Methyl-2-((S)-2-methylamino-propionylamino)-butyryl]-2,3-dihydro-1H-pyrrolo[2,3-b]pyridine-2-carboxylic acid (2-methoxy-phenyl)-amide], the values for the IC50 on BIR3 domain of XIAP and on BIR2 domain of XIAP were > 54.8 µM and 12.7 µM, respectively.
For `CN[C@@H](C)C(=O)N[C@H](C(=O)N1c2ncccc2C[C@H]1C(=O)Nc1ccccc1OC)C(C)C` [Example 10, (S)-1-[(S)-3-Methyl-2-((S)-2-methylamino-propionylamino)-butyryl]-2,3-dihydro-1H-pyrrolo[2,3-b]pyridine-2-carboxylic acid (2-methoxy-phenyl)-amide] the same measures were 25.9 µM and 0.0841 µM.
For `CN[C@@H](C)C(=O)N[C@H](C(=O)N1c2ncccc2C[C@H]1C(=O)Nc1ccccc1)C(C)C` [Example 11, (S)-1-[(S)-3-Methyl-2-((S)-2-methylamino-propionylamino)-butyryl]-2,3-dihydro-1H-pyrrolo[2,3-b]pyridine-2-carboxylic acid phenylamide] the same measures were > 54.8 µM and 0.0635 µM.
The like results for `CN[C@@H](C)C(=O)N[C@H](C(=O)N1c2ncccc2C[C@@H]1C(=O)Nc1ccccc1)C(C)C` [Example 12, (R)-1-[(S)-3-Methyl-2-((S)-2-methylamino-propionylamino)-butyryl]-2,3-dihydro-1H-pyrrolo[2,3-b]pyridine-2-carboxylic acid phenylamide] were, in that order, > 54.8 µM and > 54.8 µM.
Regarding `CN[C@@H](C)C(=O)N[C@H](C(=O)N1c2ncccc2C[C@@H]1C(=O)Nc1ccccc1C)C(C)C` [Example 13, (R)-1-[(S)-3-Methyl-2-((S)-2-methylamino-propionylamino)-butyryl]-2,3-dihydro-1H-pyrrolo[2,3-b]pyridine-2-carboxylic acid o-tolylamide], the IC50 at BIR3 domain of XIAP and on BIR2 domain of XIAP was > 54.8 µM in each case.
In the case of `CN[C@@H](C)C(=O)N[C@H](C(=O)N1c2ncccc2C[C@H]1C(=O)Nc1ccccc1C)C(C)C` [Example 14, (S)-1-[(S)-3-Methyl-2-((S)-2-methylamino-propionylamino)-butyryl]-2,3-dihydro-1H-pyrrolo[2,3-b]pyridine-2-carboxylic acid o-tolylamide], the half-maximal inhibitory concentration (IC50) at BIR3 domain of XIAP was > 54.8 µM; on BIR2 domain of XIAP, 0.0335 µM.
For the compound `CN[C@@H](C)C(=O)N[C@H](C(=O)N1c2ncccc2C[C@@H]1C(=O)NCc1ccccc1)C(C)C` [Example 15, (R)-1-[(S)-3-Methyl-2-((S)-2-methylamino-propionylamino)-butyryl]-2,3-dihydro-1H-pyrrolo[2,3-b]pyridine-2-carboxylic acid benzylamide], the IC50 on BIR3 domain of XIAP stood at 45.9 µM; at BIR2 domain of XIAP, 1.8 µM.
The like results for `CN[C@@H](C)C(=O)N[C@H](C(=O)N1c2ncccc2C[C@H]1C(=O)NCc1ccccc1)C(C)C` [Example 16, (S)-1-[(S)-3-Methyl-2-((S)-2-methylamino-propionylamino)-butyryl]-2,3-dihydro-1H-pyrrolo[2,3-b]pyridine-2-carboxylic acid benzylamide] were, in that order, 3.95 µM and 0.159 µM.
For `CN[C@@H](C)C(=O)N[C@H](C(=O)N1c2ncccc2C[C@H]1C(=O)NCc1cc(Cl)ccc1C)C(C)C` [Example 17, (S)-1-[(S)-3-Methyl-2-((S)-2-methylamino-propionylamino)-butyryl]-2,3-dihydro-1H-pyrrolo[2,3-b]pyridine-2-carboxylic acid 5-chloro-2-methyl-benzylamide] the same measures were 24.3 µM and 0.392 µM.
For `CN[C@@H](C)C(=O)N[C@H](C(=O)N1c2ncccc2C[C@H]1C(=O)Nc1ccccc1-c1ccccc1)C(C)C` [Example 18, (S)-1-[(S)-3-Methyl-2-((S)-2-methylamino-propionylamino)-butyryl]-2,3-dihydro-1H-pyrrolo[2,3-b]pyridine-2-carboxylic acid biphenyl-2-ylamide] the same measures were 37.6 µM and 0.108 µM.
As for `CN[C@@H](C)C(=O)N[C@H](C(=O)N1c2ncccc2C[C@H]1C(=O)Nc1cccc2ccccc12)C(C)C` [Example 19, (S)-1-[(S)-3-Methyl-2-((S)-2-methylamino-propionylamino)-butyryl]-2,3-dihydro-1H-pyrrolo[2,3-b]pyridine-2-carboxylic acid naphthalen-1-ylamide], the values for the IC50 on BIR3 domain of XIAP and at BIR2 domain of XIAP were 35.1 µM and 0.0545 µM, respectively.
The like results for `CN[C@@H](C)C(=O)N[C@H](C(=O)N1c2ncccc2C[C@@H]1C(=O)Nc1cnccc1C)C(C)C` [Example 20, (R)-1-[(S)-3-Methyl-2-((S)-2-methylamino-propionylamino)-butyryl]-2,3-dihydro-1H-pyrrolo[2,3-b]pyridine-2-carboxylic acid (4-methyl-pyridin-3-yl)-amide] were, in that order, > 54.8 µM and 1.36 µM.
The like results for `CN[C@@H](C)C(=O)N[C@H](C(=O)N1c2ncccc2C[C@H]1C(=O)Nc1ccc(F)cc1)C(C)C` [Example 21, (S)-1-[(S)-3-Methyl-2-((S)-2-methylamino-propionylamino)-butyryl]-2,3-dihydro-1H-pyrrolo[2,3-b]pyridine-2-carboxylic acid (4-fluoro-phenyl)-amide] were, in that order, > 54.8 µM and 0.275 µM.

Values taken from patent publication US9309248B2, “Azaindolines” (Hoffmann-La Roche Inc., priority 2012, dated 2016).
